We go through one molecule from patent US20260315468A1, “PHARMACEUTICAL COMPOSITION AND USE THEREOF” (SHANGHAI ALLIST PHARMACEUTICAL CO., LTD., priority 2022, published 2026).

In one data set the test system is Ba/F3-EGFR-L858R-L718Q. Put plainly: Anti-proliferation, CellTiter-Glo Luminescent Cell Viability Assay. In kind it is cell-based. Conditions: 72 h, 3 days. The text has this:
(§1) The objective of the test example 1 was to evaluate the anti-proliferation effect of Furmonertinib mesilate on 18 cell lines (Ba/F3 EGFR-G719S, Ba/F3 EGFR-S768I, Ba/F3 EGFR-G724S, Ba/F3 EGFR-L718Q, Ba/F3 EGFR-Del19/G724S, Ba/F3 EGFR-E709H, Ba/F3 EGFR-L747S, Ba/F3 EGFR-E709V, Ba/F3 EGFR-L747V, Ba/F3 EGFR-E709-710>D, Ba/F3 EGFR-E709A, Ba/F3 EGFR-Del19/C797S, Ba/F3 EGFR-L858R/C797S, Ba/F3 EGFR-L747S/G719A, Ba/F3-EGFR-L858R-L718V, Ba/F3-EGFR-L858R-L718Q, Ba/F3-EGFR-E709K-G719A, and Ba/F3 EGFR-L861Q) using standard CellTiter-Glo® Luminescent Cell Viability Assay. Further, AZD9291 was used as control compound.
(§2) Cell culture: Ba/F3 EGFR-G719S, Ba/F3 EGFR-S768I, Ba/F3 EGFR-G724S, Ba/F3 EGFR-L718Q, Ba/F3 EGFR-Del19/G724S, Ba/F3 EGFR-E709H, Ba/F3 EGFR-L747S, Ba/F3 EGFR-E709V, Ba/F3 EGFR-L747V, Ba/F3 EGFR-E709-710>D, Ba/F3 EGFR-E709A, Ba/F3 EGFR-Del19/C797S, Ba/F3 EGFR-L858R/C797S, Ba/F3 EGFR-L747S/G719A, Ba/F3-EGFR-L858R-L718V, Ba/F3-EGFR-L858R-L718Q, Ba/F3-EGFR-E709K-G719A, and Ba/F3 EGFR-L861Q engineered cells were obtained from Kyinno, and maintained at 37° C. with 5% CO2, in the RPMI1640 media supplemented with 10% fetal bovine serum.
(§3) The cells during the logarithmic growth period were harvested and counted by using blood counting chamber. The cell viability was over 90% which was determined by trypan blue assay. The cell concentration was adjusted with culture medium. 90 μl cell suspensions was added to two 96-well plates to obtain the final cell density of 3000 cells per well. The plates were incubated in humidified incubator at 37° C. with 5% CO2.
(§4) The solution of tested compounds (Furmonertinib mesilate and AZD9291) was diluted 1000-fold with DMSO. Then, said DMSO solution was diluted 100-fold with PBS (Phosphate Buffered Saline) to obtain 10× working solution. And 10× reference control solution was prepared by Phosphate Buffered Saline (PBS). 10 μl working solution (10×) was dispensed to each well (triplicate for each concentration). (The top concentration was 3160 nM, 3.16-fold dilution and 10 different concentrations. The final concentration of DMSO in culture medium was 0.1% [v/v]). The plate was cultured for 3 days.
(§5) On Day 3, CellTiter-Glo® reagent (a luciferase ATP bioluminescence detection reagent) was thawed, and then the cell plate was equilibrated at room temperature for approximately 30 minutes. 100 μl CellTiter-Glo® Reagent which was equal to the volume of cell culture medium present in each well was added. The obtained content was mixed for 5 minutes on an orbital shaker to induce cell lysis. The cell plate was incubated at room temperature for 20 minutes to stabilize luminescent signal. The luminescence was recorded by using Multi-mode Microplate Reader.
(§6) [formula] • blank control: medium control; • vehicle control: culture medium with 0.1% DMSO
(§7) The graphical curves were fitted using a nonlinear regression model with a sigmoidal dose response.
In general terms: In ATP-based viability assays light output follows the ATP content of the culture.

The next data set has as its system Ba/F3 EGFR-E709A. The data set is described as above. In kind it is cell-based. Conditions: Mus musculus, BaF3, 72 h, 3 days.
From the text: as §1, §2, §3, §4, §5, §6, §7

Another data set has as its system Ba/F3 EGFR-L747S/G719A. The data set is described as above. The format is cell-based. Conditions: Mus musculus, BaF3, 72 h, 3 days.
From the text: as §1, §2, §3, §4, §5, §6, §7

The test system of the next data set is Ba/F3 EGFR-L858R/C797S. Described as above. The format is cell-based. As to conditions: Mus musculus, BaF3, 72 h, 3 days.
From the text: as §1, §2, §3, §4, §5, §6, §7

Another data set relates to Ba/F3-EGFR-L858R-L718V. Described as above. The format is cell-based. Conditions: 72 h, 3 days.
From the text: as §1, §2, §3, §4, §5, §6, §7

The next data set concerns Ba/F3 EGFR-S768I. The description is as above. The format is cell-based. Conditions: Mus musculus, BaF3, 72 h, 3 days.
From the text: as §1, §2, §3, §4, §5, §6, §7

In the next data set the test system is Ba/F3-EGFR-E709K-G719A. Described as above. In kind it is cell-based. Conditions: 72 h, 3 days.
From the text: as §1, §2, §3, §4, §5, §6, §7

Another data set relates to Ba/F3 EGFR-E709-710 > D. The description is as above. Conditions: Mus musculus, BaF3, 72 h, 3 days. The format is cell-based.
From the text: as §1, §2, §3, §4, §5, §6, §7

The subject of a further data set is Ba/F3 EGFR-G719S. Described as above. As to conditions: Mus musculus, BaF3, 72 h, 3 days. The format is cell-based.
From the text: as §1, §2, §3, §4, §5, §6, §7

The test system of the next data set is Ba/F3 EGFR-G724S. Described as above. In kind it is cell-based. As to conditions: Mus musculus, BaF3, 72 h, 3 days.
From the text: as §1, §2, §3, §4, §5, §6, §7

The subject of another data set is Ba/F3 EGFR-Del19/C797S. The data set is described as above. The format is cell-based. As to conditions: Mus musculus, BaF3, 72 h, 3 days.
From the text: as §1, §2, §3, §4, §5, §6, §7

The conditions of data set [1]: orally, once per day, 20 mg-240 mg; cited from earlier work.

What is called IC50 is the concentration that inhibits the measured activity by half. Low values mean greater potency, high ones weaker potency. `C=CC(=O)Nc1cc(Nc2nccc(-c3cn(C)c4ccccc34)n2)c(OCC(F)(F)F)nc1N(C)CCN(C)C` [Furmonertinib mesilate]: the IC50 in the data set on Ba/F3-EGFR-L858R-L718Q was 289 nM; with Ba/F3 EGFR-E709A it was 17.9 nM; with Ba/F3 EGFR-L747S/G719A, 16.5 nM; with Ba/F3 EGFR-L858R/C797S, 2210 nM; in the data set with Ba/F3-EGFR-L858R-L718V, 23.9 nM; in the data set on Ba/F3 EGFR-S768I it was 21.6 nM. Also, the IC50 in the data set with Ba/F3-EGFR-E709K-G719A came out at 39 nM; in the data set on Ba/F3 EGFR-E709-710 > D it was 89.6 nM; in the data set on Ba/F3 EGFR-G719S it was 12.1 nM; in the data set with Ba/F3 EGFR-G724S, 21.3 nM; with Ba/F3 EGFR-Del19/C797S, 1220 nM. For the same molecule, the “adverse events of subjects” value in data set [1] is reported as “mild or moderate”. The dose-related toxic reaction result in data set [1] was “does not occur”. For the same molecule, in data set [1], the tolerance and safety result is “the tolerance and the safety are good”.
